Some test systems named below: ACHN renal; OVCAR-8 ovarian; IGROV1 ovarian; SK-MEL-2 melanoma; OVCAR-3 ovarian; A498 renal; SNB-75 CNS; MOLT-4 leukemia; HCC-2998 colon; MDA-MB-231 breast.
Holding throughout (assay): DTP human tumour cell line panel, 48 h

For 15 compounds, TGI and GI50 results are on record in PubChem BioAssay (NCI).

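The compound was tested at five concentrations on cells cultured in 96-well plates, with a 48-hour exposure period. GI50 marks 50% less growth. TGI: concentration producing complete growth inhibition.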

As to `CC1(c2ccc[n+](Cc3ccccc3)c2)OCCO1`, the TGI in the assay with ACHN renal, in the assay on OVCAR-8 ovarian, in the assay with IGROV1 ovarian, in the assay with SK-MEL-2 melanoma, in the assay with OVCAR-3 ovarian and in the assay on A498 renal was above 100 µM throughout. In addition, the TGI in the assay on SNB-75 CNS, in the assay on MOLT-4 leukemia and with HCC-2998 colon was above 100 µM throughout.

With `COc1cc(/C=C2/C[C@H]3[C@@H]4CC=C5C[C@@H](OC(C)=O)CC[C@]5(C)[C@H]4CC[C@]3(C)NC2=O)cc(OC)c1OC`, the concentration for total growth inhibition (TGI) – broadly, the concentration at which net growth stops – in the assay on ACHN renal was 44.6 µM; in the assay with OVCAR-8 ovarian, above 100 µM; in the assay on IGROV1 ovarian, 69.6 µM; with SK-MEL-2 melanoma, 52.4 µM; with OVCAR-3 ovarian, above 100 µM; in the assay on SNB-75 CNS, 47.3 µM. Also, the values for the TGI in the assay with MOLT-4 leukemia, in the assay on HCC-2998 colon and with MDA-MB-231 breast were 91.4 µM, above 100 µM and 62.5 µM, respectively.

For `COc1ccc(C(SC2C(O)C(CO)OC2n2ccc(N)nc2=O)(c2ccccc2)c2ccc(OC)cc2)cc1` (configuration not stated), the total growth inhibition concentration (TGI) in the assay on ACHN renal is above 100 µM; in the assay with OVCAR-8 ovarian it was above 100 µM; with IGROV1 ovarian, 67 µM; in the assay with SK-MEL-2 melanoma, 33 µM; with OVCAR-3 ovarian, 48.5 µM; with SNB-75 CNS, 46.6 µM. For the same compound, the TGI with MOLT-4 leukemia is above 100 µM; in the assay on HCC-2998 colon, 32.6 µM; with MDA-MB-231 breast it was 30.8 µM.

As to `CC[N+]1(C)CCC(O)(c2ccc(Cl)c(Cl)c2)C(C(=O)c2ccc(Cl)c(Cl)c2)C1` (configuration not stated), the TGI with ACHN renal, in the assay on OVCAR-8 ovarian, in the assay on IGROV1 ovarian, in the assay with SK-MEL-2 melanoma, with OVCAR-3 ovarian and in the assay with A498 renal was above 10 µM in each case. In addition, the total growth inhibition concentration (TGI) in the assay on SNB-75 CNS, in the assay on MOLT-4 leukemia and in the assay with HCC-2998 colon was above 10 µM each time.

In the case of `NCCCN(CCCN)CCN(CCN(CCCN)CCCN)CCN(CCCN)CCCN`, the concentration for total growth inhibition (TGI) in the assay with ACHN renal was above 100 µM; with OVCAR-8 ovarian, above 100 µM; in the assay on IGROV1 ovarian, above 100 µM; in the assay with SK-MEL-2 melanoma, above 100 µM; in the assay on OVCAR-3 ovarian, above 100 µM; in the assay with SNB-75 CNS, 22.9 µM. For the same compound, the TGI with HCC-2998 colon and with MDA-MB-231 breast was above 100 µM in each case.

For the compound `S=C1SCN(Cc2ccco2)CN1c1ccc(Br)cc1`, the TGI with ACHN renal came out at 64.2 µM; with OVCAR-8 ovarian, 93.9 µM; in the assay with IGROV1 ovarian it was 45.7 µM; with SK-MEL-2 melanoma, 32 µM; in the assay with OVCAR-3 ovarian, 21.1 µM; in the assay with A498 renal it was 66.1 µM. In addition, the TGI is above 100 µM in the assay with SNB-75 CNS, 47.4 µM in the assay on MOLT-4 leukemia and 27.5 µM in the assay on HCC-2998 colon.

On to `Cc1ccc2c(c1C)C(=O)/C(=C/c1ccccc1C(=O)O)C2`, for which the TGI in the assay on ACHN renal, with OVCAR-8 ovarian, in the assay on IGROV1 ovarian, with SK-MEL-2 melanoma, in the assay on OVCAR-3 ovarian and in the assay with A498 renal was above 100 µM in each case. Also, the TGI with SNB-75 CNS, with MOLT-4 leukemia and in the assay on HCC-2998 colon was above 100 µM in each case.

`CCOC(=O)C(NC(=O)CC)(Nc1cc(C)on1)C(F)(F)F` (configuration not stated): the TGI with ACHN renal, in the assay with OVCAR-8 ovarian, in the assay with IGROV1 ovarian, in the assay with SK-MEL-2 melanoma, in the assay with SNB-75 CNS and in the assay on MOLT-4 leukemia was above 100 µM each time. In addition, the TGI with HCC-2998 colon is above 100 µM.

As for `COc1ccc(C)cc1Nc1nnc(-c2ccccc2N)s1`, the concentration for total growth inhibition (TGI) with ACHN renal is above 100 µM; in the assay on OVCAR-8 ovarian, above 100 µM; in the assay with IGROV1 ovarian it was above 100 µM; with SK-MEL-2 melanoma, 52.3 µM; in the assay with OVCAR-3 ovarian, above 100 µM; in the assay with A498 renal it was above 100 µM. For the same compound, the results for the concentration for total growth inhibition (TGI) in the assay with SNB-75 CNS, in the assay on MOLT-4 leukemia and in the assay on HCC-2998 colon were above 100 µM, 15 µM and above 100 µM, respectively.

As to `O=C(O)c1ccn(-c2cccc(-n3ccc(C(=O)O)n3)n2)n1`, the TGI in the assay with ACHN renal, in the assay with OVCAR-8 ovarian, in the assay on IGROV1 ovarian, in the assay with SK-MEL-2 melanoma, in the assay with OVCAR-3 ovarian and in the assay with SNB-75 CNS was above 100 µM throughout. Further, the TGI with MOLT-4 leukemia and in the assay with MDA-MB-231 breast was above 100 µM in each case.

On to `COc1cc(C(C)c2cc3c(cc2OCCO)OCO3)cc(OC)c1OC` (configuration not stated), for which the TGI is above 100 µM with ACHN renal; above 100 µM in the assay on OVCAR-8 ovarian; above 100 µM in the assay on IGROV1 ovarian; above 100 µM with SK-MEL-2 melanoma; 4.34 µM with SNB-75 CNS; above 100 µM with MOLT-4 leukemia. For the same compound, in the assay with HCC-2998 colon, the concentration for total growth inhibition (TGI) is above 100 µM.

Take `CCOc1cc(C2CC(c3ccc(NS(=O)(=O)c4cc([N+](=O)[O-])ccc4C)cc3)=NN2c2ccc([N+](=O)[O-])cc2[N+](=O)[O-])ccc1O` (configuration not stated): the TGI amounted to 21.7 µM with ACHN renal; 49 µM in the assay with OVCAR-8 ovarian; 46.2 µM in the assay on IGROV1 ovarian; 44.3 µM in the assay on SK-MEL-2 melanoma; 29 µM with OVCAR-3 ovarian; 35.3 µM with SNB-75 CNS. The results for the total growth inhibition concentration (TGI) in the assay with MOLT-4 leukemia and in the assay on MDA-MB-231 breast were above 100 µM and 20.6 µM, respectively.

With `CC(=O)Nc1ccc(OC2=CCN(C)CC2)cc1`, the TGI in the assay with ACHN renal, with OVCAR-8 ovarian, in the assay with IGROV1 ovarian, with SK-MEL-2 melanoma, in the assay with OVCAR-3 ovarian and in the assay with SNB-75 CNS was above 100 µM each time. Besides, the TGI with MOLT-4 leukemia, in the assay on HCC-2998 colon and in the assay on MDA-MB-231 breast was above 100 µM in each case.

As to `COc1ccc(C(=O)/C=C/c2c(Cl)c3c(c(OC)c2Cl)OCC(=O)N3)cc1`, the GI50 (in general, the concentration that inhibits growth by half) with ACHN renal was 1.79 µM; in the assay with OVCAR-8 ovarian it was 2.85 µM; in the assay with IGROV1 ovarian it was 3.28 µM; with SK-MEL-2 melanoma it was 2.19 µM; in the assay on A498 renal it was 3.07 µM; in the assay on SNB-75 CNS, 2.23 µM. The GI50 in the assay on MOLT-4 leukemia is 2.71 µM. Further, the total growth inhibition concentration (TGI) in the assay with ACHN renal is 3.64 µM; with OVCAR-8 ovarian, 16.3 µM; in the assay on IGROV1 ovarian, above 100 µM; in the assay with SK-MEL-2 melanoma, 5.94 µM; in the assay on A498 renal it was 37.2 µM; in the assay with SNB-75 CNS, 9.71 µM. In the assay with MOLT-4 leukemia, the TGI came to 9.75 µM.

In the case of `COc1cc2c(cc1OC)C(Cl)C(c1ccc(Cl)c(Cl)c1)=C2Cl` (configuration not stated), the TGI in the assay on ACHN renal was 21.8 µM; in the assay on OVCAR-8 ovarian it was 19.5 µM; in the assay with IGROV1 ovarian it was 28.9 µM; in the assay with SK-MEL-2 melanoma, 21.3 µM; with OVCAR-3 ovarian, 15.2 µM; with A498 renal, 34 µM. For the same compound, the concentration for total growth inhibition (TGI) in the assay with SNB-75 CNS is 23.9 µM; with MOLT-4 leukemia, 12.3 µM.
